Experimental data taken from patent US9586985B2, “Organic compounds as proantigens for natural killer T cells” (Callaghan Innovation Research Limited, priority 2012, dated 2017).
“Also recorded” adds a separate entry of the source.

How the values were obtained:
[1] = tested on: cytokines IL-12p70, IL-4 and IFN-g; test: Cytokine release into serum after injection (cytokine bead array); type: in vivo, C57BL/6 mice; conditions: for cytokine profile in vivo compared to α-GalCer: 200 ng i.v. or molar equivalent
Method: (§1) Groups of C57BL/6 mice (n=3 per group) are injected intravenously with 200 ng of the indicated compounds, and then the serum is collected at the indicated times for analysis of cytokine levels by cytokine bead array technology.
as §1, with “ng of α-GalCer or an equivalent molar amount” for “ng”, “technology. (Compound CN158A1b=CN158 formulated in accordance with Example 15; Compound CN158A=CN158 in water.)” for “technology.”
Blood is collected from the lateral tail vein at different time intervals after glycolipid administration. Serum is collected after blood has clotted, and levels of cytokines IL-12p70, IL-4 and IFN-g are assessed by cytokine bead array technology (Bioplex, Biorad), according to the manufacturer's instructions.

[2] = tested on: SIINFEKL-specific T cells; test: Peptide-specific T cell proliferation in vivo (adjuvant with OVA); parameters: species or system C57BL/6 mice; conditions: co-administered i.v. with OVA, molar dose equivalent to α-GalCer, blood after seven days
Method: The compounds are injected to give the equivalent molar dose as compared to α-GalCer. To increase sensitivity of the assay, all mice are initially donated a cohort of 10,000 SIINFEKL-specific T cells from a transgenic mouse encoding a T cell receptor for this antigen (OT-1 mice), which is undertaken by intravenous injection of the cells one day before the vaccines are administered. […] It is therefore possible to enumerate SIINFEKL-specific T cells in blood by flow cytometry using antibodies for CD45.1 together with antibodies for the transgenic T cell receptor (Vα2). […] Control animals are injected with the diluent phosphate-buffered saline (PBS). Each dot represents a different animal; mean per treatment group±SEM are presented. ***p<0.001, ** p<0.01, * p<0.05.
Pooled lymph node cell suspensions are prepared from animals of a cross between OT-I mice, which express a transgenic T cell receptor (TCR) specific for the ovalbumin epitope SIINFEKL in the context of H-2K^b molecules, and B6.SJL-Ptprc^a Pepc^b/BoyJ mice, which are congenic with C57BL/6 mice for the CD45.1^+ marker. The samples are enriched for CD8^+ cells using antibody coated magnetic beads (Miltenyi), and then transferred into C57BL/6 mice (1×10^4 per mouse). Groups of recipient animals (n=5) are immunized with compounds of the invention one day later. Doses are chosen to provide equivalent molar values of SIINFEKL peptide. […]

B16.OVA melanoma cells = test: Anti-tumour activity against subcutaneous B16.OVA tumours, given with OVA protein; type: in vivo, C57BL/6 mice; conditions: i.v. with 200 μg OVA protein seven days after tumour challenge
Method: Progression of subcutaneous B16.OVA tumours is monitored in animals that are treated seven days after tumour challenge with intravenous OVA protein together with the indicated compounds, or treated with PBS. The mean tumour sizes per group (n=5)±SEM are shown.
Progression of subcutaneous B16.OVA tumours is monitored in animals that are treated seven days after tumour challenge with intravenous OVA protein together with the indicated compounds, or treated with PBS. The mean tumour sizes per group (n=5)±SEM are shown. […] (Compound CN158A=CN158 in water.)
Groups of C57BL/6 mice (n=5) receive a subcutaneous injection into the flank of 1×10^5 B16.OVA melanoma cells, which express a cDNA encoding the chicken ovalbumin (OVA) sequence. The different groups are treated 7 days later, when tumours are fully engrafted, by intravenous injection of one of the following; 200 μg OVA protein together with 200 ng α-GalCer, 200 μg OVA protein together with 200 ng of a compound of the invention, or PBS. Mice are monitored for tumour growth every 3-4 days, and tumour size for each group is calculated as the mean of the products of bisecting diameters (±SEM). Measurements are terminated for each group when the first animal develops a tumour exceeding 200 mm^2.

[3] = literature statement; cited from earlier work
[4] = tested on: NKT cells / CD11c+ dendritic cells; test: CD86 expression on splenic dendritic cells after injection (DC activation as measure of NKT cell activation); type: in vivo, C57BL/6 mice; conditions: 200 ng i.v. (FIG. 7: molar equivalent of 200 ng α-GalCer), spleens removed 20 h later, flow cytometry
Method: (§2) Groups of C57BL/6 mice (n=3) are injected intravenously with 200 ng of the indicated compounds and then the spleens are removed 20 h later for the analysis of CD86 expression on CD11c+ dendritic cells by antibody labelling and flow cytometry. Mean fluorescence index±SEM are presented.
as §2, with “200 ng of α-GalCer or an equivalent molar amount of the” for “200 ng of the”, “are presented. (Compound CN158A1b=CN158 formulated in accordance with Example 15. Compound CN158A=CN158 in water.)” for “are presented.”
Each compound of the invention is supplied as formulated product (see example 12), and diluted in phosphate-buffered saline (PBS) for injection (200 ng/mouse) by intravenous injection into the lateral tail vein. In humans the expected therapeutic dose lies in the 50-4800 (μg/m^2) range (Giaccone, Punt et al. 2002). Note, 200 ng in a mouse is a human equivalent dose of 30 μg/m^2.
All antibody labeling is performed on ice in FACS buffer (PBS supplemented with 1% FCS, 0.05% sodium azide, and 2 mM EDTA). Non-specific FcR-mediated antibody staining is blocked by incubation for 10 min with anti-CD16/32 Ab (24G2, prepared in-house from hybridoma supernatant). […]

[5] = HPLC-ESI-MSMS quantification of α-GalCer in test samples; type: physicochemical
Method: Quantification of the amount of α-GalCer in various test samples of compounds of the invention is made by HPLC-ESI-MSMS analysis using a Waters 2795 HPLC and a Waters Q-TOF Premier™ Tandem Mass Spectrometer. The chromatography used a Phenomenex Kinetex C18 […] 3.0×50 mm column eluting with isocratic methanol containing 10 mM ammonium formate+0.5% formic acid at a flow rate of 0.2 mL/min. α-GalCer is monitored by selective reactant monitoring of 858.7 to 696.7 Da. The estimate of amount of α-GalCer is made by comparison of ion count integrals to a standard curve run on the same day or by comparison to test samples spiked with a known amount of α-GalCer.
The level of α-GalCer is determined on freshly reconstituted formulated samples unless otherwise stated. The estimated maximum level of α-GalCer for key compounds is given below.

Water solubility = type: physicochemical
[6] = freshly reconstituted formulated sample, estimated maximum level
[7] = non-formulated / unformulated sample (CN158*: aqueous solution)

Compound | SIINFEKL-specific T cell response in blood (adjuvant activity) [2] | anti-tumour activity: growth of established B16.OVA tumours (B16.OVA melanoma cells) | cytokine profile in vivo compared to α-GalCer ([1]; FIGS. 3 and 8) | water solubility (Water solubility) [mg/mL] | Max α-GalCer (ppm) [5, 6] | Max α-GalCer/injection [5, 6] [ng] | Max α-GalCer (ppm) [5, 7] | Max α-GalCer/injection [5, 7] [ng] | other results
CCCCCCCCCCCCCCCCCCCCCCCCCC(=O)N[C@@H](CO[C@H]1O[C@H](CO)[C@H](O)[C@H](O)[C@H]1O)[C@H](O)[C@H](O)CCCCCCCCCCCCCC [α-GalCer, α-Galactosylceramide, reference compound] | induces a population of SIINFEKL-specific T cells | provides therapeutic anti-tumour activity | – | – | – | – | – | – | time of peak IFN-γ level in serum ([1]; after injection, mice): 12 h; time of peak IL-4 level in serum ([1]; after injection, mice): 2 to 3 h; time of peak IL-12p70 level in serum ([1]; after injection, mice): 6 h; water solubility (in words) [3]: low water solubility; also recorded: poor solubility
CCCCCCCCCCCCCCCCCCCCCCCCCC(=O)O[C@H](CCCCCCCCCCCCCC)[C@@H](O)[C@@H](N)CO[C@H]1O[C@H](CO)[C@H](O)[C@H](O)[C@H]1O [CN089, (2S,3S,4R)-2-Amino-1-O-α-D-galactopyranosyl-4-O-hexacosanoyl octadecane-1,3,4-triol] | – | – | – | – | – | – | – | – | DC activation: CD86 expression on splenic CD11c+ dendritic cells [4]: potently activates DCs; conversion of CN089 to α-GalCer after formulation ([5]; within 1 hour of formulation, LCMSMS): approximately 50%
(2S,3S,4R)-1-O-α-D-Galactopyranosyl-4-hexacosanoyl-2-((4-(ω-methoxy(poly(ethyleneoxy))imino)pentanoyloxy)methyleneoxycarbonylamino) octadecane-1,3,4-triol [CN158] | induces a similar T cell expansion | provides therapeutic anti-tumour activity | different cytokine profiles | ~38 | 180 ppm | 0.25 | 170 ppm | 0.24 | overall levels of systemic cytokine production ([1]; 200 ng α-GalCer or equivalent i.v., FIGS. 3 and 8): no systemic cytokines are detected; also recorded: No detectable cytokines are observed
(2S,3S,4R)-1-O-α-D-Galactopyranosyl-4-hexacosanoyl-2-((4-(2-methoxy(poly(2-ethoxy))imino)pentanoyloxy)methoxycarbonylamino) octadecane-1,3,4-triol [CN147] | – | – | different cytokine profiles | ~0.5 | 615 ppm | 0.123 | – | – | course of IL-12p70 level in serum ([1]; 200 ng i.v., FIG. 3): still increasing through 6 to 12 h; ratio of IFN-γ to IL-4 in serum compared to α-GalCer ([1]; 200 ng i.v., FIG. 3): higher ratio of IFN-γ to IL-4 than that of α-GalCer
CCCCCCCCCCCCCCCCCCCCCCCCCC(=O)O[C@H](CCCCCCCCCCCCCC)[C@@H](O)[C@H](CO[C@H]1O[C@H](CO)[C@H](O)[C@H](O)[C@H]1O)NC(=O)OCOC(C)=O [CN136, (2S,3S,4R)-2-Acetoxymethoxycarbonylamino-1-O-α-D-galactopyranosyl-4-O-hexacosanoyl octadecane-1,3,4-triol] | – | – | – | – | 1,000 ppm | 0.2 | – | – | –
CCCCCCCCCCCCCCCCCCCCCCCCCC(=O)O[C@H](CCCCCCCCCCCCCC)[C@@H](O)[C@H](CO[C@H]1O[C@H](CO)[C@H](O)[C@H](O)[C@H]1O)NC(=O)OCOP(=O)(O)O [CN131, (2S,3S,4R)-1-O-α-D-Galactopyranosyl-4-O-hexacosanoyl-2-phosphoryloxymethoxycarbonylamino octadecane-1,3,4-triol] | – | – | – | – | – | – | 6,000 (analysis on non- ppm | 1.2 | –
